Tested on: MCF-7 cells
Experiment: Cell growth inhibition by [3H]thymidine incorporation, PRPC fractions and PRPC/IEC/RPC sub-fractions
Type: cell-based, human
Experimental: (§1) Sub-confluent cells were serum-starved overnight and then were left untreated, i.e., no serum (−), were treated with serum (+) or with isolated V. amygdalina fractions 8, 9, 10, 14, 15, 16, 17, 18, 19, or 20 for 18 hours. Following incubation, all cells were pulsed with 1 μCi/ml [^3H]thymidine for an additional 4-6 hours as described in Example 2. The results represent the mean ±SD of three independent experiments. *P<0.05; **P<0.01.
as §1, with “100 μg/ml of” for “isolated”, “fractions” for “fractions 8, 9, 10, 14,”
Sub-confluent cells were serum-starved overnight and then were left untreated, i.e., no serum (−), were treated with serum (+) or with 100 ng/ml of V. amygdalina fractions 19-5-16, 19-5-17, or 19-5-13 for 18 hours. […]
Fraction 19 of the PRPC separation described in Example 3 was subjected to IEC fractionation as described in Example 4 to produce 10 IEC sub-fractions designated IEC sub-fractions 19-1 to 19-10. […] Finally, Two RPC sub-fractions, specifically 19-5-16 and 19-5-17, were further analyzed and shown to be pure peptides. […]

For 19-5-16 (DTKDVVNVTG), the “inhibition of cell DNA synthesis” value (100 nanograms/ml, MCF-7, FIG. 5) was 4 fold and the “potency in growth inhibition assay (in words)” value (RPC sub-fractions of 19-5, assay as in Example 6) was “exceptionally high potency”.

Reference: patent US6713098B2, “Phytochemotherapy for cancer” (priority 2001, dated 2004)
